Earlier results in US8574562B2, “Microemulsion pharmaceutical composition comprising a macrolide immunosuppressant drug” (Novaliq GmbH, priority 2009, dated 2013).

Assays:
[1] = methanol, ethanol, acetone, chloroform, ethyl acetate, diethyl ether
[2] = relative to ciclosporin
[3] = relative to ciclosporin; remark: listed apart in the source

solubility in organic solvents [1]: soluble
Structure (SMILES): C=CC[C@@H]1/C=C(\C)C[C@H](C)C[C@H](OC)[C@H]2O[C@@](O)(C(=O)C(=O)N3CCCC[C@H]3C(=O)O[C@H](/C(C)=C/[C@@H]3CC[C@@H](O)[C@H](OC)C3)[C@H](C)[C@@H](O)CC1=O)[C@H](C)C[C@@H]2OC [Tacrolimus]
immunosuppressive activity in vivo, higher than that of ciclosporin [2]: 10-20 times | immunosuppressive activity in vitro, higher than that of ciclosporin [3]: 50-100 times
